This note sets out measurements from ChEMBL document CHEMBL3763143, “Novel morpholine scaffolds as selective dopamine (DA) D3 receptor antagonists” (Bioorg Med Chem Lett, 2016).

As a reminder, the Ki is a dissociation constant, usually derived from enzyme kinetics or from competition with a known ligand. A higher Ki goes with a looser hold on the target. What is called IC50 is the midpoint of a concentration-inhibition curve. A higher IC50 goes with a need for much substance. For orientation: bioavailability means the share of a dose that reaches the circulation, judged against a reference dose that is usually intravenous. As usually defined, the half-life is the time needed for the level to fall by half in the phase considered. Low readings indicate rapid decline, high ones slow decline. As a reminder, the fraction unbound is free concentration divided by total concentration. As usually defined, the clearance is a measure of how efficiently the substance is removed, as volume per time. Low readings indicate a low capacity for elimination, high ones a high capacity for elimination.

Data set [1] addresses Dopamine receptor D2 and D3 (Rattus norvegicus) (UniProt P19020+P61169). In words: Selectivity ratio of Ki for rat brain dopamine D2 receptor to Ki for rat brain dopamine D3 receptor.
The target of data set [2] is T1, D(3) dopamine receptor (Homo sapiens, UniProt P35462). In words: Agonist activity at human dopamine D3 receptor expressed in CHO cells after 90 mins by [35S]-GTPgamma S assay. In kind it is cell-based. Background: Binding of GTPγS marks nucleotide exchange on a G protein.
Data set [3] has as its target T1, D(3) dopamine receptor. The data set can be described thus: Antagonist activity at human dopamine D3 receptor expressed in CHO cells after 90 mins by [35S]-GTPgamma S assay. The data set is classed as cell-based.
The target of data set [4] is D(3) dopamine receptor (Rattus norvegicus, UniProt P19020).
Description: Displacement of [125I]-7-OH-PIPAT from rat brain dopamine D3 receptor after 45 mins by microplate scintillation counting analysis
For data set [5], the target named is T2, Cytochrome P450 3A4 (Homo sapiens, UniProt P08684). In words: Inhibition of human CYP3A4 expressed in bactosome using DBOMF as substrate. In kind it is ADME.
Data set [6] in a line: Volume of distribution at steady state in portal vein-cannulated rat. The data set is classed as ADME, organism-based. The conditions noted are these: in vivo, read-out: Vdss.
The nature of data set [7]: Intrinsic clearance in human liver microsomes assessed per mg of protein. The data set is classed as ADME. Particulars: read-out: CLH. In general terms: Microsomes from liver hold many membrane-bound enzymes, among them those of drug oxidation.
Data set [8] deals with T2, Cytochrome P450 3A4. The data set can be described thus: Inhibition of human CYP3A4 expressed in bactosome using 7BQ as substrate. The data set is classed as ADME.
Data set [9] can be described thus: Bioavailability in portal vein-cannulated rat. In kind it is ADME, organism-based. Particulars: in vivo.
Data set [10] is described as follows: Intrinsic clearance in rat liver microsomes assessed per mg of protein. The data set is classed as ADME. The conditions noted are these: read-out: CLH.
Data set [11] in a line: Half life in portal vein-cannulated rat. The data set is classed as ADME, organism-based. Particulars: in vivo.
A short description of data set [12]: Fraction absorbed in portal vein-cannulated rat. The data set is classed as ADME, organism-based. Particulars: in vivo.
The target of the next data set is Cytochrome P450 2C19 (Homo sapiens, UniProt P33261). In words: Inhibition of human CYP2C19 expressed in bactosome. The data set is classed as ADME.
The next data set concerns the target Cytochrome P450 2D6 (Homo sapiens, UniProt P10635). The data set can be described thus: Inhibition of human CYP2D6 expressed in bactosome. In kind it is ADME.
The nature of data set [13]: Hepatic extraction ratio in portal vein-cannulated rat. In kind it is ADME, organism-based. Particulars: in vivo, read-out: ERH.
The next data set has as its target Cytochrome P450 2C9 (Homo sapiens, UniProt P11712). The data set can be described thus: Inhibition of human CYP2C9 expressed in bactosome. In kind it is ADME.
Data set [14] in a line: Fraction unbound in portal vein-cannulated rat brain. In kind it is ADME, tissue-based.
The nature of data set [15]: Fraction unbound in portal vein-cannulated rat blood. The data set is classed as ADME, tissue-based.
In data set [16] the target is Voltage-gated inwardly rectifying potassium channel KCNH2 (Homo sapiens, UniProt Q12809). In words: Displacement of [3H]-dofetilide from human ERG potassium channel by scintillation proximity assay. (In general: Displacement assays read how much labelled ligand stays bound in the presence of the test substance.)
The target in data set [17] is T3, Muscarinic acetylcholine receptor M1 (Homo sapiens, UniProt P11229).
T3 sequence (P11229 whole entry): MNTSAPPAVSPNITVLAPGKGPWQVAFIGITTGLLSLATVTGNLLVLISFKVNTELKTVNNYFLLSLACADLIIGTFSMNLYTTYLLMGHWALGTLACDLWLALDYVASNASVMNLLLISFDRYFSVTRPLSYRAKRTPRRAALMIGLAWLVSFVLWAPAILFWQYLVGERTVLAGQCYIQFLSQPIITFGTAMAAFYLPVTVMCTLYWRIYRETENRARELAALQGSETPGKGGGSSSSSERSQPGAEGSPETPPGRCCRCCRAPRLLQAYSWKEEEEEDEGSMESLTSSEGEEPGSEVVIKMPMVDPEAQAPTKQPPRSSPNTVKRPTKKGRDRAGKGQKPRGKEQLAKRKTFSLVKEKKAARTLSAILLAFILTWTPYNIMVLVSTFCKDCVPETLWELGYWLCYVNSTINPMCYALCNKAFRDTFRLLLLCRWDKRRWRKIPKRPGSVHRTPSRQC
In words: Antagonist activity at muscarinic M1 receptor (unknown origin).

Data set [18] can be described thus: Blood clearance in portal vein-cannulated rat. The data set is classed as ADME, organism-based. The conditions noted are these: whole blood.
Another data set addresses T4, Cytochrome P450 1A2 (Homo sapiens, UniProt P05177).
T4 sequence (P05177 whole entry): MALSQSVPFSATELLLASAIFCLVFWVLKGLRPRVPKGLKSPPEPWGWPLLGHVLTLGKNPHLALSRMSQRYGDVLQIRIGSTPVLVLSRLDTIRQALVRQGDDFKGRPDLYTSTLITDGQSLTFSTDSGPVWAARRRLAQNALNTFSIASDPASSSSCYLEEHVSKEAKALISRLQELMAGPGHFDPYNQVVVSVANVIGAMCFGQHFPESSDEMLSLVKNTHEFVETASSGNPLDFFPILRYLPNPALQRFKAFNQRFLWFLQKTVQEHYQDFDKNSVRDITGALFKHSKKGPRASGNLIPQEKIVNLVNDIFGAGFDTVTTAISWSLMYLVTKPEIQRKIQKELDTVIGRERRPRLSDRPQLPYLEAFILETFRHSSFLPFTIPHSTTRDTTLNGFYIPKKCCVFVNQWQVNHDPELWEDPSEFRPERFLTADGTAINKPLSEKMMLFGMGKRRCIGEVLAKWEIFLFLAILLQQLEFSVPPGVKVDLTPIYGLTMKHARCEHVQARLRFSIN
In words: Inhibition of human CYP1A2 expressed in bactosome. In kind it is ADME.

The next data set addresses T5, D(4) dopamine receptor (Homo sapiens, UniProt P21917).
T5 sequence (P21917 whole entry): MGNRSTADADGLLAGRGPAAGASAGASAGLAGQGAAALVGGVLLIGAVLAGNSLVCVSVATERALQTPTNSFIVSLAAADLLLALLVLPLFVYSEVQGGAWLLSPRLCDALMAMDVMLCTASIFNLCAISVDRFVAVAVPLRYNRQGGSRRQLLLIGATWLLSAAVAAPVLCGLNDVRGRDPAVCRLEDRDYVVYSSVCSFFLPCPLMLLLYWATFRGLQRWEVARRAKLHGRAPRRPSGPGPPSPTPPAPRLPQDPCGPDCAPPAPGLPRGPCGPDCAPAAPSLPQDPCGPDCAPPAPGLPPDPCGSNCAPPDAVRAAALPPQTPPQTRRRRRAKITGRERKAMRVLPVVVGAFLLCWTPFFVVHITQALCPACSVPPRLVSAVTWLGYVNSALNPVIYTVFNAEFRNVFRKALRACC
In words: (§1) Binding affinity to dopamine D4 receptor (unknown origin).

In the next data set the target is D(1A) dopamine receptor (Homo sapiens, UniProt P21728). In words: Binding affinity to dopamine D1 receptor (unknown origin).
The target in data set [19] is Muscarinic acetylcholine receptor M3 (Homo sapiens, UniProt P20309). In words: Binding affinity to muscarinic M3 receptor (unknown origin).
The target in data set [20] is T6, D(4) dopamine receptor (Homo sapiens) (UniProt P21917).
T6 sequence (whole entry): T5 sequence (P21917 whole entry)
Described as §1.

Each structure is given as a SMILES string. Calls of active or inactive are those of the source. Where only a bound is given, the exact number is not on record here.

T2 sequence (P08684 whole entry): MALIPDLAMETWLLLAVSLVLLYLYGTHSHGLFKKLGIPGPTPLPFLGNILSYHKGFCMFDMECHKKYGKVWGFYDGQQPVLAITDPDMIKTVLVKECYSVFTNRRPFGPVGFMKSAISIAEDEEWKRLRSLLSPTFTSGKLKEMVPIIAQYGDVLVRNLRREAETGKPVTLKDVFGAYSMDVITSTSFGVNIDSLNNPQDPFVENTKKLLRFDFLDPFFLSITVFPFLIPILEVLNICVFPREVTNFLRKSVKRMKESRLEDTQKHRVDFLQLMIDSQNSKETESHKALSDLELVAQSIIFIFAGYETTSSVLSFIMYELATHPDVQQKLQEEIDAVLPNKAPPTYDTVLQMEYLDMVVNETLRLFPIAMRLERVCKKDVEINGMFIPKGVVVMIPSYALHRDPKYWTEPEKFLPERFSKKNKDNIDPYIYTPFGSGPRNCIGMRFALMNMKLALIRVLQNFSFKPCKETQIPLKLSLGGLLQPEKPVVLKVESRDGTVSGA
Sequence of D(3) dopamine receptor (Rattus norvegicus, UniProt P19020) (P19020 whole entry): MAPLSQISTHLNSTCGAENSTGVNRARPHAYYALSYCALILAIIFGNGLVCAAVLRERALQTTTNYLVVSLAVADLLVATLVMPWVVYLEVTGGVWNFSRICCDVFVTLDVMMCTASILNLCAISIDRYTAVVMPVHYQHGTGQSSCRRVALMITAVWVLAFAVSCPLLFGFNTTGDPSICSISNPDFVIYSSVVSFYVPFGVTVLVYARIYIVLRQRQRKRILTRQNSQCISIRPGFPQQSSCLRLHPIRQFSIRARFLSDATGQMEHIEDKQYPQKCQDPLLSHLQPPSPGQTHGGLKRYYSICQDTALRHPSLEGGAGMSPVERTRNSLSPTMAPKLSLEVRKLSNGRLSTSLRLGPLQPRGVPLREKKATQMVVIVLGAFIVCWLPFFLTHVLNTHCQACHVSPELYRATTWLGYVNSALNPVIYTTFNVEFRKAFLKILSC
T1 sequence (P35462 whole entry): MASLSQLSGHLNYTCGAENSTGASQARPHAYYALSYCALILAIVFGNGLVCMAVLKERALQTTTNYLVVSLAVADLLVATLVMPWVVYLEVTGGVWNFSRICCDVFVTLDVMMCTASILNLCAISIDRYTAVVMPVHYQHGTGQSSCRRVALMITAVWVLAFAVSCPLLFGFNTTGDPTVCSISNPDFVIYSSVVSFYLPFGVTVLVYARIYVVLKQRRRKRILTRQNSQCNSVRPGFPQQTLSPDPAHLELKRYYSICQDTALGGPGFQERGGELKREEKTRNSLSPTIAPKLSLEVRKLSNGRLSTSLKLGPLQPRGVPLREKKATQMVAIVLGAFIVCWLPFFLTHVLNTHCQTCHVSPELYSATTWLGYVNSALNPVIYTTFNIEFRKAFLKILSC
Sequence of Cytochrome P450 2D6 (P10635 whole entry): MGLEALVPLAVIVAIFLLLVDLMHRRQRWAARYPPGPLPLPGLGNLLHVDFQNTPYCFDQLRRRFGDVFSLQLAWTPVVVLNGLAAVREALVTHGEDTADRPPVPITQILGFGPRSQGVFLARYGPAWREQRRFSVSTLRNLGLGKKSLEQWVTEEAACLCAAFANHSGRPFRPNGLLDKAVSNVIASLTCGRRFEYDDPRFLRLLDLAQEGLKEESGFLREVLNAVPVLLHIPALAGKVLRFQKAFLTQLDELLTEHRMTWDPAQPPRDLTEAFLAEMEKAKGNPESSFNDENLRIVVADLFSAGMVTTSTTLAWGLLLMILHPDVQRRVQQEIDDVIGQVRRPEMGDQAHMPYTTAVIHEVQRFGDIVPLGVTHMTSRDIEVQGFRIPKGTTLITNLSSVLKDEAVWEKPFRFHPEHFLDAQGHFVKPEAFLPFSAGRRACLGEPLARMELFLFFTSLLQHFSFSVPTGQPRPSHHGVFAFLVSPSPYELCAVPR
Sequence of Voltage-gated inwardly rectifying potassium channel KCNH2 (Q12809 whole entry): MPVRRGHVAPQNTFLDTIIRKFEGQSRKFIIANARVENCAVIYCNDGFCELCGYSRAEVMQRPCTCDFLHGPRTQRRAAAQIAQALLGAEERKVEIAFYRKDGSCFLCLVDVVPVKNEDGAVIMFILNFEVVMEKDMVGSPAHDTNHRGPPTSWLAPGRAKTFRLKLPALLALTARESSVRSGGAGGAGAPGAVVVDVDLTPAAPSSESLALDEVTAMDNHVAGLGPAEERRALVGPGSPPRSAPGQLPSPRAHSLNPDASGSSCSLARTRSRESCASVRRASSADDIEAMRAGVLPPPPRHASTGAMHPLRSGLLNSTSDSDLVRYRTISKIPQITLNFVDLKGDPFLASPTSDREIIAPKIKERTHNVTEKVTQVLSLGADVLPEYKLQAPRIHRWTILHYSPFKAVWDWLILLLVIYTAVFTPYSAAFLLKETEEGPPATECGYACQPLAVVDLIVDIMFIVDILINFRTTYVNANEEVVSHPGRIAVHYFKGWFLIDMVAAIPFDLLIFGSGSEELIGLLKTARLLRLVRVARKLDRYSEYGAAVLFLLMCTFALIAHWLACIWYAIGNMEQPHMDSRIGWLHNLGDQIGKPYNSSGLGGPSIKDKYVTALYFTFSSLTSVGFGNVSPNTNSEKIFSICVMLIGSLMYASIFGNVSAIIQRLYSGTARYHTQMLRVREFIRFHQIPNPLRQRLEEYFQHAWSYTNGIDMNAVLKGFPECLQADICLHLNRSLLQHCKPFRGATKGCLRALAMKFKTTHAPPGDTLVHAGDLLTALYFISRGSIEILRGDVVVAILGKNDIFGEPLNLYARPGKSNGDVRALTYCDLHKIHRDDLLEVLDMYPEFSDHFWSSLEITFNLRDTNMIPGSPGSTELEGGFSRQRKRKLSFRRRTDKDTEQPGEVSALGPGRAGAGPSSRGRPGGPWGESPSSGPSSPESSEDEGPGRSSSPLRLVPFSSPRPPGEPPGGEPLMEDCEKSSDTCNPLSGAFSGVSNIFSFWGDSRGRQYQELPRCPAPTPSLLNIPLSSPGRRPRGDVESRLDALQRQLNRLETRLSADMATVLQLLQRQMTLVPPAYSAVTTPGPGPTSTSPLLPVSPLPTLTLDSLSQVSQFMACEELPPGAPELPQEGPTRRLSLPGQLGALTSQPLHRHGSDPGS
Sequence of Cytochrome P450 2C19 (P33261 whole entry): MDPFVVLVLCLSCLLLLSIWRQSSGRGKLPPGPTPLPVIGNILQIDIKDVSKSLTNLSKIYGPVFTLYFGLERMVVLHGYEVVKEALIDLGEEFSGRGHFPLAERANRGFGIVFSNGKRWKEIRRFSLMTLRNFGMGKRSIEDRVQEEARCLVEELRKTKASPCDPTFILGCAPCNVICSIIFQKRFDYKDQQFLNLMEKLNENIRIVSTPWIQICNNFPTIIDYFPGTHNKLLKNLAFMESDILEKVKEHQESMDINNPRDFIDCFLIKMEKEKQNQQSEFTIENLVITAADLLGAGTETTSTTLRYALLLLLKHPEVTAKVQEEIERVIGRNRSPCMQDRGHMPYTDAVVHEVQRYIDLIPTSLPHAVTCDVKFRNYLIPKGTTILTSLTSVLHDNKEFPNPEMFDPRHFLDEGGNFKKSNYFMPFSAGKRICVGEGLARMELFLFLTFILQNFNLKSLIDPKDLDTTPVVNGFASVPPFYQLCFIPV
Sequence of Dopamine receptor D2 and D3 (Rattus norvegicus) (P19020 whole entry, looked up): as the sequence (P19020 whole entry) above
Sequence of Dopamine receptor D2 and D3 (Rattus norvegicus) (P61169 whole entry, looked up): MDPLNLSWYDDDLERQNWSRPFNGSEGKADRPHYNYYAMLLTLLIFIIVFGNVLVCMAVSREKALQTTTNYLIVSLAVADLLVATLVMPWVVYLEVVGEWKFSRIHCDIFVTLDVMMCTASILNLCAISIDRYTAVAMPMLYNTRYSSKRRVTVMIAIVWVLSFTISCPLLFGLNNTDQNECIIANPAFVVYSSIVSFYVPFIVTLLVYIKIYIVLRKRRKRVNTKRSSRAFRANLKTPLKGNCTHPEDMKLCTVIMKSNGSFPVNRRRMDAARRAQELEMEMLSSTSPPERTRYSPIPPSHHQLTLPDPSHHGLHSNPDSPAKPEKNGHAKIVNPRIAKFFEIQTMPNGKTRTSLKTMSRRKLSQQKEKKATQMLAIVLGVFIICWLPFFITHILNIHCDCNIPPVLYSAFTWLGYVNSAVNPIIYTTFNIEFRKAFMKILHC
Sequence of D(1A) dopamine receptor (P21728 whole entry): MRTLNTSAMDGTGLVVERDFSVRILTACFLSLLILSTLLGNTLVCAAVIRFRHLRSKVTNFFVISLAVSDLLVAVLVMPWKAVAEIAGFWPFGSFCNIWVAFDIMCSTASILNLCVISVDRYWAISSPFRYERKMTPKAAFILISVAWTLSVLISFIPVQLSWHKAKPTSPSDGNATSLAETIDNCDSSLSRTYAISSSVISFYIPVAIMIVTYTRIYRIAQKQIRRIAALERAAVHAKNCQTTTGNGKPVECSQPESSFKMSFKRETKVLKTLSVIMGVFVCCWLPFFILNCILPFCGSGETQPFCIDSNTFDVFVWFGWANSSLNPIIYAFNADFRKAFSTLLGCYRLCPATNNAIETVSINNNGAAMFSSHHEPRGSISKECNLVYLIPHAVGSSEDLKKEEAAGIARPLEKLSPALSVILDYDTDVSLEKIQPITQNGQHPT
Sequence of Cytochrome P450 2C9 (P11712 whole entry): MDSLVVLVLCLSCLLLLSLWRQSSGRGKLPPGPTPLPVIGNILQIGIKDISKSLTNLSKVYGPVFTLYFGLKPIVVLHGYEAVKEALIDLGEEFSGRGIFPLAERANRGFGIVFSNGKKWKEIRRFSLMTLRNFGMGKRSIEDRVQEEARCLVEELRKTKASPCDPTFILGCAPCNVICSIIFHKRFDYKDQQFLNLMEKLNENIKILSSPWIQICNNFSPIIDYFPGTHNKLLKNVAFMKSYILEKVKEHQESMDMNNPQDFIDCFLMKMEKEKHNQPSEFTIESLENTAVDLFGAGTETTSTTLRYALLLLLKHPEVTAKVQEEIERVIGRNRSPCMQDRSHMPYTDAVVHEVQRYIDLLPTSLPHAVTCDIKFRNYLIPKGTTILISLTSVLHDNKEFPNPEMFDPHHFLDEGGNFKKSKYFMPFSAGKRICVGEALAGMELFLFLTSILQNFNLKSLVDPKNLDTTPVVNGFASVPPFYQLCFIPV

`Cn1c(SCCCN2CCOC(c3ccc(C(F)(F)F)cc3)C2)nnc1-c1ccc(-c2ncco2)cc1` (racemic): the Ratio Ki in data set [1] came to 300.

Take `Cn1c(SCCCN2CCOC(c3ccc(C(F)(F)F)cc3)C2)nnc1C1CCCCC1` (racemic): the Ki on D(3) dopamine receptor [2] was greater than 10 µM; at D(3) dopamine receptor [3] it was 0.02 µM; on D(3) dopamine receptor [4], 0.0398 µM. In [1], the Ratio Ki turned out to be 200.

For the compound `Cc1ncoc1-c1nnc(SCCCN2CCOC(c3ccc(F)cc3)C2)n1C` (stereo in doubt; 7), the IC50 at Cytochrome P450 3A4 [5], against Cytochrome P450 3A4 [8], at Cytochrome P450 2C19, against Cytochrome P450 2D6, against Cytochrome P450 2C9 and against Cytochrome P450 1A2 was greater than 30 µM in each case. In addition, the Vd in data set [6] was found to be 2.61 L/kg. In addition, the results for the microsomal CLint in data set [7] and in [10] were 21.7 µL/min/mg and less than 9 µL/min/mg, respectively. Besides, the bioavailability in data set [9] stood at 100%. For the same compound, the half-life in data set [11] is 0.8 h. Further, the Ki on D(3) dopamine receptor [4] was 0.251 µM; in [16], 3.16 µM; in [17], 3.16 µM. For the same compound, in data set [12], the Fa turned out to be 100%. Also, the hepatic extraction ratio in data set [13] came out at 0.1. The fraction unbound in data set [14] is greater than 0.5; in data set [15], 0.17. Moreover, the clearance in [18] was 40 mL/min/kg.

As for `Cc1ncoc1-c1nnc(SCCCN2CCOC(c3ccc(C(F)(F)F)cc3)C2)n1C` (stereo in doubt; 9), the IC50 at Cytochrome P450 3A4 [5], against Cytochrome P450 3A4 [8], on Cytochrome P450 2C19, against Cytochrome P450 2D6, against Cytochrome P450 2C9 and on Cytochrome P450 1A2 was greater than 6 µM each time. Besides, in data set [6], the Vd was determined as 2.5 L/kg. Moreover, the microsomal CLint in data set [7] stood at 40 µL/min/mg. This compound showed a bioavailability in [9] of 58%. Also, the Ki on D(4) dopamine receptor is greater than 100 µM; on D(3) dopamine receptor [4] it was 0.0501 µM; at D(1A) dopamine receptor it was greater than 100 µM; in data set [19], 1 µM; in data set [16], 3.16 µM; in [17] it was 1 µM. The compound also had a half-life in data set [11] of 3.5 h. The compound also registered a Fa in data set [12] of 63%. For the same compound, the fraction unbound in data set [14] was 0.071; in data set [15], 0.062. Besides, the clearance in data set [18] turned out to be 13.5 mL/min/kg.

With `Cn1c(SCCCN2CCOC(c3ccc(C(F)(F)F)cc3)C2)nnc1-c1ccc(C(N)=O)cc1` (racemic), the result (in [20]; at D(1A) dopamine receptor; in data set [19]) was inactive.
